Where “and” joins values, the source holds several entries; their conditions need not be identical. Equal entries are not always repeated.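 In this assay, cells in 96-well plates receive the compound at five concentrations for 48 hours. Endpoints are linearly interpolated between the surrounding concentrations. Abbreviation: GI50, concentration required for 50% inhibition of growth. TGI is the concentration that stops growth completely.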
Legend:
Experiment in all cases: growth of human tumour cells (NCI), 48 h
786-0 renal = tested on: 786-0 renal
A498 renal = tested on: A498 renal
A549 NSCLC = tested on: A549 NSCLC
ACHN renal = tested on: ACHN renal
BT-549 breast = tested on: BT-549 breast
CAKI-1 renal = tested on: CAKI-1 renal
CCRF-CEM leukemia = tested on: CCRF-CEM leukemia
COLO 205 colon = tested on: COLO 205 colon
DU-145 prostate = tested on: DU-145 prostate
EKVX NSCLC = tested on: EKVX NSCLC
HCC-2998 colon = tested on: HCC-2998 colon
HCT-116 colon = tested on: HCT-116 colon
HCT-15 colon = tested on: HCT-15 colon
HL-60(TB) leukemia = tested on: HL-60(TB) leukemia
HOP-62 NSCLC = tested on: HOP-62 NSCLC
HOP-92 NSCLC = tested on: HOP-92 NSCLC
HS 578T breast = tested on: HS 578T breast
HT29 colon = tested on: HT29 colon
IGROV1 ovarian = tested on: IGROV1 ovarian
K-562 leukemia = tested on: K-562 leukemia
KM12 colon = tested on: KM12 colon
LOX IMVI melanoma = tested on: LOX IMVI melanoma
M14 melanoma = tested on: M14 melanoma
MALME-3M melanoma = tested on: MALME-3M melanoma
MCF7 breast = tested on: MCF7 breast
MDA-MB-231 breast = tested on: MDA-MB-231 breast
MDA-MB-435 = tested on: MDA-MB-435
MDA-N = tested on: MDA-N
MOLT-4 leukemia = tested on: MOLT-4 leukemia
NCI-H226 lung = tested on: NCI-H226 lung
NCI-H23 lung = tested on: NCI-H23 lung
NCI-H460 lung = tested on: NCI-H460 lung
NCI-H522 lung = tested on: NCI-H522 lung
NCI/ADR-RES ovarian = tested on: NCI/ADR-RES ovarian
OVCAR-3 ovarian = tested on: OVCAR-3 ovarian
OVCAR-4 ovarian = tested on: OVCAR-4 ovarian
OVCAR-5 ovarian = tested on: OVCAR-5 ovarian
OVCAR-8 ovarian = tested on: OVCAR-8 ovarian
PC-3 prostate = tested on: PC-3 prostate
RPMI-8226 leukemia = tested on: RPMI-8226 leukemia
RXF 393 renal = tested on: RXF 393 renal
SF-268 CNS = tested on: SF-268 CNS
SF-295 CNS = tested on: SF-295 CNS
SF-539 CNS = tested on: SF-539 CNS
SK-MEL-2 melanoma = tested on: SK-MEL-2 melanoma
SK-MEL-28 melanoma = tested on: SK-MEL-28 melanoma
SK-MEL-5 melanoma = tested on: SK-MEL-5 melanoma
SK-OV-3 ovarian = tested on: SK-OV-3 ovarian
SN12C renal = tested on: SN12C renal
SNB-19 CNS = tested on: SNB-19 CNS
SNB-75 CNS = tested on: SNB-75 CNS
SR leukemia = tested on: SR leukemia
SW-620 colon = tested on: SW-620 colon
T-47D breast = tested on: T-47D breast
TK-10 renal = tested on: TK-10 renal
U251 CNS = tested on: U251 CNS
UACC-257 melanoma = tested on: UACC-257 melanoma
UACC-62 melanoma = tested on: UACC-62 melanoma
UO-31 renal = tested on: UO-31 renal

## O=C(NNC(=O)c1ccccc1S)c1ccccc1S
786-0 renal
  GI50: 13.4 µM
  TGI: 25 µM and > 100 µM
A498 renal
  TGI: > 100 µM
A549 NSCLC
  GI50: 28.7 µM
  TGI: 25 µM and > 100 µM
ACHN renal
  TGI: 25 µM and > 100 µM
BT-549 breast
  GI50: 16.7 µM
  TGI: 25 µM and > 100 µM
CAKI-1 renal
  GI50: 5.51 µM
  TGI: 25 µM and > 100 µM
CCRF-CEM leukemia
  GI50: 1.85 µM
  TGI: 25 µM and 12.2 µM
COLO 205 colon
  GI50: 28.2 µM
  TGI: 25 µM and > 100 µM
DU-145 prostate
  TGI: 25 µM and > 100 µM
EKVX NSCLC
  GI50: 52.2 µM
  TGI: 25 µM and > 100 µM
HCC-2998 colon
  TGI: > 100 µM
HCT-116 colon
  GI50: 8.17 µM
  TGI: 25 µM and 82.1 µM
HCT-15 colon
  GI50: 7.97 µM
  TGI: 25 µM and > 100 µM
HL-60(TB) leukemia
  GI50: 3.12 µM
  TGI: 24.6 µM and 17.6 µM
HOP-62 NSCLC
  GI50: 21 µM
  TGI: 25 µM and 68.3 µM
HOP-92 NSCLC
  GI50: > 100 µM
  TGI: > 100 µM
HS 578T breast
  TGI: > 100 µM
HT29 colon
  GI50: 31.3 µM
  TGI: 25 µM and > 100 µM
IGROV1 ovarian
  GI50: 16.9 µM
  TGI: 22.5 µM and > 100 µM
K-562 leukemia
  GI50: 5.4 µM
  TGI: 25 µM and > 100 µM
KM12 colon
  GI50: 37.3 µM
  TGI: 25 µM and > 100 µM
LOX IMVI melanoma
  TGI: 25 µM and > 100 µM
M14 melanoma
  GI50: 23.3 µM
  TGI: 25 µM and > 100 µM
MALME-3M melanoma
  GI50: 54.3 µM
  TGI: 25 µM and > 100 µM
MCF7 breast
  TGI: > 100 µM
MDA-MB-231 breast
  TGI: > 100 µM
MDA-MB-435
  GI50: 33.2 µM
  TGI: 25 µM and > 100 µM
MDA-N
  GI50: 22.3 µM
  TGI: 25 µM and > 100 µM
MOLT-4 leukemia
  GI50: 3.58 µM
  TGI: 25 µM and > 100 µM
NCI-H226 lung
  GI50: 25.2 µM
  TGI: 25 µM and > 100 µM
NCI-H23 lung
  GI50: 20.8 µM
  TGI: 25 µM and > 100 µM
NCI-H460 lung
  GI50: 0.123 µM
  TGI: 25 µM and > 100 µM
NCI-H522 lung
  GI50: 5.34 µM
NCI/ADR-RES ovarian
  GI50: 25.9 µM
  TGI: 25 µM and > 100 µM
OVCAR-3 ovarian
  GI50: 16.1 µM
  TGI: 25 µM and 65.4 µM
OVCAR-4 ovarian
  GI50: 28 µM
  TGI: 25 µM and > 100 µM
OVCAR-5 ovarian
  GI50: 68.2 µM
  TGI: 25 µM and > 100 µM
OVCAR-8 ovarian
  TGI: 25 µM and > 100 µM
PC-3 prostate
  TGI: > 100 µM
RPMI-8226 leukemia
  GI50: 9.24 µM
  TGI: 25 µM and > 100 µM
RXF 393 renal
  GI50: 8.74 µM
  TGI: 25 µM and > 100 µM
SF-268 CNS
  GI50: 16.6 µM
  TGI: 25 µM and > 100 µM
SF-295 CNS
  GI50: 21.8 µM
  TGI: 25 µM and > 100 µM
SF-539 CNS
  GI50: 37.1 µM
  TGI: 25 µM and > 100 µM
SK-MEL-2 melanoma
  TGI: > 100 µM
SK-MEL-28 melanoma
  GI50: 35.3 µM
  TGI: > 100 µM
SK-MEL-5 melanoma
  GI50: 34.2 µM
  TGI: 25 µM and > 100 µM
SK-OV-3 ovarian
  GI50: 64.8 µM
  TGI: > 100 µM
SN12C renal
  GI50: 25.9 µM
  TGI: 25 µM and > 100 µM
SNB-19 CNS
  GI50: 59.9 µM
  TGI: 25 µM and > 100 µM
SNB-75 CNS
  GI50: 27.9 µM
  TGI: 25 µM and > 100 µM
SR leukemia
  GI50: 3.37 µM
  TGI: 25 µM and 15.4 µM
SW-620 colon
  GI50: 8.09 µM
  TGI: 25 µM and > 100 µM
T-47D breast
  GI50: 6.88 µM
  TGI: 25 µM and > 100 µM
TK-10 renal
  GI50: > 100 µM
  TGI: > 100 µM
U251 CNS
  GI50: 31.8 µM
  TGI: 25 µM and > 100 µM
UACC-257 melanoma
  GI50: 2.57 µM
  TGI: 25 µM and > 100 µM
UACC-62 melanoma
  GI50: 27.5 µM
  TGI: 25 µM and > 100 µM
UO-31 renal
  TGI: > 100 µM

## CC1(c2ccc(Cl)cc2)NC(=NCCO)c2ccccc21 (centres undefined)
786-0 renal
  TGI: 30.4 µM
A498 renal
  TGI: 52.6 µM
A549 NSCLC
  TGI: > 100 µM
ACHN renal
  TGI: > 100 µM
BT-549 breast
  TGI: 99.7 µM
CAKI-1 renal
  TGI: > 100 µM
CCRF-CEM leukemia
  TGI: 24.2 µM
COLO 205 colon
  TGI: 28.8 µM
DU-145 prostate
  TGI: > 70.8 µM
EKVX NSCLC
  TGI: > 100 µM
HCC-2998 colon
  TGI: 24.8 µM
HCT-116 colon
  TGI: > 100 µM
HCT-15 colon
  TGI: > 100 µM
HL-60(TB) leukemia
  TGI: > 35.5 µM
HOP-62 NSCLC
  TGI: > 100 µM
HOP-92 NSCLC
  TGI: 77.9 µM
HS 578T breast
  TGI: > 95.1 µM
HT29 colon
  TGI: > 62.8 µM
IGROV1 ovarian
  TGI: > 100 µM
K-562 leukemia
  TGI: 33.4 µM
KM12 colon
  TGI: > 57.3 µM
LOX IMVI melanoma
  TGI: 32.8 µM
M14 melanoma
  TGI: 25.5 µM
MALME-3M melanoma
  TGI: 35 µM
MCF7 breast
  TGI: 53.1 µM
MDA-MB-231 breast
  TGI: > 100 µM
MDA-MB-435
  TGI: 32.6 µM
MDA-N
  TGI: 26.9 µM
MOLT-4 leukemia
  TGI: 37.8 µM
NCI-H226 lung
  TGI: > 100 µM
NCI-H23 lung
  TGI: > 94.5 µM
NCI-H460 lung
  TGI: > 84.5 µM
NCI-H522 lung
  TGI: > 100 µM
NCI/ADR-RES ovarian
  TGI: > 100 µM
OVCAR-3 ovarian
  TGI: > 100 µM
OVCAR-4 ovarian
  TGI: > 100 µM
OVCAR-5 ovarian
  TGI: > 100 µM
OVCAR-8 ovarian
  TGI: > 100 µM
PC-3 prostate
  TGI: > 100 µM
RPMI-8226 leukemia
  TGI: 19.5 µM
RXF 393 renal
  TGI: 57.9 µM
SF-268 CNS
  TGI: > 100 µM
SF-295 CNS
  TGI: > 81.1 µM
SF-539 CNS
  TGI: 27.3 µM
SK-MEL-2 melanoma
  TGI: 37.7 µM
SK-MEL-28 melanoma
  TGI: 30 µM
SK-MEL-5 melanoma
  TGI: 31 µM
SK-OV-3 ovarian
  TGI: > 100 µM
SN12C renal
  TGI: > 100 µM
SNB-19 CNS
  TGI: > 100 µM
SNB-75 CNS
  TGI: > 85.1 µM
SR leukemia
  TGI: 46 µM
SW-620 colon
  TGI: > 100 µM
T-47D breast
  TGI: > 48 µM
TK-10 renal
  TGI: > 100 µM
U251 CNS
  TGI: > 100 µM
UACC-257 melanoma
  TGI: 33.5 µM
UACC-62 melanoma
  TGI: 32.1 µM
UO-31 renal
  TGI: > 100 µM
